The text below walks through data of patent US20150284689A1, “STRATEGY FOR ENGINEERING VARIOUS 3D TISSUES, ORGANOIDS AND VASCULATURE” (THE REGENTS OF THE UNIVERSITY OF CALIFORNIA, priority 2012, published 2015).

Assay [1] has as its system isolated ureteric bud, Wolffian duct bud. The assay can be described thus: isolated ureteric bud / Wolffian duct culture in biocompatible matrix, branching morphogenesis. The format is cell-based. Particulars: isolated UB/WD separated from MM, in Matrigel/collagen gel. An excerpt:
This isolated cell culture system can serve as a powerful assay system since it directly assesses the effect of soluble factors on cell morphogenesis and tubulogenesis.
As discussed herein, the disclosure provides methods and compositions whereby isolated budding epethelia (e.g., UBs, WDs, or UBs and WDs) can be co-cultured and stimulated by extrinsic factors to induce branching. These branching buds can then be combined with a tissue specific mesenchymal cell population to develop a desired tissue (e.g., combined with metanephric mesenchyme to produce kidney tissue). For example, whole isolated intact UB, WD, or UB and ND (cleanly separated from surrounding MM) can be induced to undergo branching morphogenesis in vitro in a manner similar to UB, WD, or UB and WD culture. Suspension of the isolated UBs, WDs, or UBs and WDs within, or on, a natural or artificial biocompatible substrate (e.g., Matrigel/collagen gel) and when exposed to a mixture of mesenchyme-cultured media augmented with GDNF, results in the isolated unbranched UB, WD, or UB and WD rapidly forming a polarized, extensively branched structure with an internal lumen. […] This modulation is typically branch-promoting, elongation promoting, or branch-inhibiting.
The culture system and methods of the disclosure provide toe ability to propagate the isolated UB, WD, or UB and WD in vitro through several generations. For example, isolated stem cells, UB, WD, or any combination thereof are cultured in vitro and induced to undergo branching morphogenesis in the presence of BSN-CM or pleiotrophin and GDNF or pleiotrphin, FGF1, and GDNF. After 8 days, the cultured bud is subdivided into approximate 3rds and re-suspended within a suitable biocompatible matrix (matrigel/collagen gel). This 2nd generation bud is further subdivided after another 8 days of culture and the 3rd generation bud is cultured for 8 days (thus yielding at least 9 subdivided buds from one progenitor bud) (e.g., see FIG. 9A-B). These subsequent clonal generations of cultured UB, WD, or UB and WD retain the ability of the progenitor bud to induce mesenchyme upon in vitro recombination. The buds also retained the capacity to form cohesive conduits with the mesenchymally-derived tubules that they induced. Thus, the disclosure provides the ability to develop and propagate a clonal, expanded, and long-lived colony of ureteric bud, Wolffian duct bud, or ureteric and Wolffian duct buds, derived from a single progenitor bud that retains the properties of the progenitor. Using similar techniques with the MM, it is possible to develop colonies of mesenchyme derived from a single progenitor mesenchyme that can then be recombined with a propagated UB, WD, or UB and WD.

A further assay relates to cultured mesenchyme. Description: cultured isolated mesenchyme, induction/differentiation. The format is cell-based. The settings on record: isolated mesenchyme cultured in vitro.
In a further assay the test system is MDCK and mIMCD cells. Particulars: three-dimensional cultures of MDCK and mIMCD cells; cited from earlier work.

In the case of Endostatin, in assay [1], the “effect on branching morphogenesis of isolated UB, WD” value (“effect on branching morphogenesis” for short) is “selectively inhibits branching of the UB, WD, or UB and WD”.
As to FGF1: fibroblast growth factor-1, the “effect on branching morphogenesis” value in assay [1] was “induced the formation of elongated stern cells, UB, ND, or any combination thereof branching stalks”.
Regarding “FGF2: growth factor present in UB/WD conditioned media”, the “effect on cultured mesenchyme (mesenchymal-to-epithelial transformation, survival, differentiation)” value in the assay on cultured mesenchyme is “appear to promote survival but not differentiation of mesenchyme”.
Take HGF: Hepatocyte growth factor: in the assay on MDCK and mIMCD cells, the “formation of branching tubular structures with lumens” value is “induce the formation of branching tubular structures with lumens”.
For “LIF: leukemia-inhibitory factor, isolated from UB, WD conditioned media”, the “effect on cultured mesenchyme (mesenchymal-to-epithelial transformation, survival, differentiation)” value in the assay on cultured mesenchyme is on record as “induce mesenchymal-to-epithelial transformation of cultured mesenchyme”.

B1: pleiotrophin: polypeptide in active morphogenetic fraction of BSN-CM; fibroblast proliferative and neurite outgrowth-promoting factor (protein, UniProt P21246 33-168, looked up)
Pleiotrophin: GKKEKPEKKVKKSDCGEWQWSVCVPTSGDCGLGTREGTRTGAECKQTMKTQRCKIPCNWKKQFGAECKYQFQAWGECDLNTALKTRTGSLKRALHNAECQKTVTISKPCGKLTKPKPQAESKKKKKEGKKQEKMLD
For B1, the “effect on branching morphogenesis” value in assay [1] was “induces branching morphogenesis of the whole ureteric bud, Wolffian duct bud, or ureteric and Wolffian duct bud”.

B2: FGF7: fibroblast growth factor-7 (protein, UniProt P21781 32-194, looked up)
Fibroblast growth factor 7: CNDMTPEQMATNVNCSSPERHTRSYDYMEGGDIRVRRLFCRTQWYLRIDKRGKVKGTQEMKNNYNIMEIRTVAVGIVAIKGVESEFYLAMNKEGKLYAKKECNEDCNFKELILENHYNTYASAKWTHNGGEMFVALNQKGIPVRGKKTKKEQKTAHFLPMAIT
Consider B2, for which, in assay [1], the “effect on branching morphogenesis” value was “induced amorphous buds displaying nonselective proliferation with little distinction between stalks and ampullae”.
